Here are results for 8 molecules from PubChem BioAssay (NCI).

Where “and” joins values, the source holds several entries; their conditions need not be identical. Equal values may be shown once.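 Results reflect a 48-hour exposure of cells in 96-well plates to compound at five concentrations. GI50 marks 50% less growth. TGI marks complete inhibition of growth.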

Test systems include COLO 205 colon; HL-60(TB) leukemia; SF-268 CNS; OVCAR-5 ovarian; DU-145 prostate; MDA-MB-231 breast; HCT-15 colon; NCI-H23 lung; HCC-2998 colon; HOP-92 NSCLC.
Holding throughout (experiment): DTP human tumour cell line panel, 48 h

The term GI50 denotes the concentration giving 50% growth inhibition. What is called TGI is the concentration at which net growth stops. Higher therefore signals less potent growth arrest.

On to `CN(c1ccccc1)c1c2ccccc2nc2[nH]c3ccccc3c12`, for which the GI50 in the assay with COLO 205 colon was 3.45 µM; in the assay on HL-60(TB) leukemia it was 0.985 µM; in the assay with SF-268 CNS, 3.41 µM; in the assay on OVCAR-5 ovarian, 12.6 µM; in the assay on DU-145 prostate, 1.44 µM; in the assay on MDA-MB-231 breast, 1.93 µM. Besides, the GI50 in the assay with HCT-15 colon is 2.73 µM; with NCI-H23 lung, 6.4 µM; in the assay on HCC-2998 colon it was 3.05 µM; with HOP-92 NSCLC, 1.79 µM. Further, the TGI with COLO 205 colon was found to be 16.1 µM; in the assay on HL-60(TB) leukemia, 6.25 µM; with SF-268 CNS, 15.2 µM; in the assay on OVCAR-5 ovarian, 39.5 µM; in the assay on DU-145 prostate it was 8.76 µM; with MDA-MB-231 breast, 4.63 µM. Also, the TGI with HCT-15 colon was more than 31.9 µM; in the assay with NCI-H23 lung it was 28.7 µM; with HCC-2998 colon, 12.1 µM; with HOP-92 NSCLC, 6.46 µM.

In the case of `O=C1NC(=O)C2C3C=CC(C12)C1C2C(=O)NC(=O)C2C31` (centres undefined), the GI50 with COLO 205 colon is > 62.6 µM and 108 µM; in the assay with SF-268 CNS, more than 896 µM; in the assay on OVCAR-5 ovarian it was more than 1000 µM; in the assay on DU-145 prostate, more than 619 µM; with MDA-MB-231 breast, more than 801 µM; in the assay on HCT-15 colon it was > 43.6 µM and 646 µM. The GI50 in the assay on NCI-H23 lung was 727 µM; in the assay on HCC-2998 colon it was more than 587 µM; in the assay on HOP-92 NSCLC, more than 1000 µM. The TGI in the assay with COLO 205 colon is 198 µM and > 892 µM; in the assay on HL-60(TB) leukemia, 206 µM and > 1000 µM; with SF-268 CNS it was more than 1000 µM; with OVCAR-5 ovarian it was more than 1000 µM; in the assay on DU-145 prostate, more than 1000 µM; in the assay on MDA-MB-231 breast, more than 1000 µM. For the same molecule, the TGI in the assay with HCT-15 colon is > 61 µM and 250 µM and > 1000 µM; in the assay on NCI-H23 lung, 250 µM and > 1000 µM; with HCC-2998 colon it was 250 µM and > 1000 µM; in the assay on HOP-92 NSCLC, 230 µM and > 1000 µM.

Consider `O=S(=O)(Nc1ccccc1)c1ccc(C2CC3(Cl)C(Cl)=C(Cl)C2(Cl)C3(Cl)Cl)cc1` (centres undefined), for which the GI50 is 1.98 µM with COLO 205 colon; 2.42 µM in the assay with HL-60(TB) leukemia; 3.8 µM with SF-268 CNS; 2.36 µM with OVCAR-5 ovarian; 3.58 µM with DU-145 prostate; 3.44 µM with MDA-MB-231 breast. Also, the GI50 with HCT-15 colon was 3.13 µM; in the assay with NCI-H23 lung it was 2.8 µM; in the assay with HCC-2998 colon, 1.81 µM; in the assay on HOP-92 NSCLC, 1.84 µM. Besides, the TGI in the assay on COLO 205 colon was found to be 3.48 µM; with HL-60(TB) leukemia, 5.79 µM; with SF-268 CNS, 12.8 µM; in the assay on OVCAR-5 ovarian, 5.46 µM; with DU-145 prostate, 10.1 µM; in the assay on MDA-MB-231 breast, 11.3 µM. In addition, the total growth inhibition concentration (TGI) in the assay with HCT-15 colon is 10.2 µM; with NCI-H23 lung, 7.35 µM; in the assay with HCC-2998 colon it was 3.46 µM; with HOP-92 NSCLC, 5.08 µM.

Take `COc1ccc(-n2c(=O)c3ccccc3n(Cc3ccc(C(=O)NO)cc3)c2=O)cc1`: the GI50 in the assay on COLO 205 colon is 1.75 µM; in the assay on HL-60(TB) leukemia, 3.51 µM; in the assay on SF-268 CNS, 1.91 µM; with OVCAR-5 ovarian, 2.34 µM; in the assay with DU-145 prostate it was 3.24 µM; in the assay on MDA-MB-231 breast, 3.06 µM. In addition, the GI50 was 3.22 µM with HCT-15 colon, 1.78 µM with NCI-H23 lung, 1.81 µM in the assay on HCC-2998 colon and 2.1 µM with HOP-92 NSCLC. Moreover, the total growth inhibition concentration (TGI) is 4.22 µM in the assay with COLO 205 colon; more than 100 µM with HL-60(TB) leukemia; 4.25 µM in the assay on SF-268 CNS; 7.56 µM in the assay on OVCAR-5 ovarian; more than 100 µM in the assay on DU-145 prostate; 8.63 µM in the assay on MDA-MB-231 breast. Moreover, the TGI worked out at 16.2 µM with HCT-15 colon, 4.29 µM in the assay on NCI-H23 lung, 3.58 µM in the assay on HCC-2998 colon and 5.33 µM with HOP-92 NSCLC.

For the molecule `O=C1[C@H](Cc2ccc(O)cc2)N2C(=O)CCN(C(=O)NCc3ccccc3)[C@H]2CN1Cc1cccc2ccccc12`, the GI50 is 0.748 µM in the assay with COLO 205 colon; 4.84 µM in the assay with HL-60(TB) leukemia; 1.81 µM with SF-268 CNS; 1.72 µM with OVCAR-5 ovarian; 4.55 µM with DU-145 prostate; 0.605 µM in the assay on MDA-MB-231 breast. In addition, the GI50 with HCT-15 colon is 15.5 µM; in the assay on NCI-H23 lung, 4.05 µM; with HCC-2998 colon, 3.51 µM; with HOP-92 NSCLC, 0.418 µM. The concentration for total growth inhibition (TGI) amounted to 2.76 µM in the assay on COLO 205 colon; 27.3 µM in the assay with HL-60(TB) leukemia; 15.5 µM in the assay on SF-268 CNS; 29.1 µM in the assay on OVCAR-5 ovarian; 46.5 µM in the assay with DU-145 prostate; 3.6 µM in the assay with MDA-MB-231 breast. In addition, the TGI with HCT-15 colon was more than 89.8 µM; in the assay on NCI-H23 lung, 34.5 µM; in the assay on HCC-2998 colon, 23.2 µM; with HOP-92 NSCLC, 2.4 µM.

As for `O=C1NC(c2ccccc2Cl)Nc2ccccc21` (centres undefined), the TGI is more than 54.1 µM in the assay with COLO 205 colon; 16.4 µM in the assay on HL-60(TB) leukemia; more than 100 µM in the assay with SF-268 CNS; more than 100 µM with OVCAR-5 ovarian; more than 100 µM with DU-145 prostate; more than 100 µM in the assay on MDA-MB-231 breast. For the same molecule, the TGI in the assay on HCT-15 colon, with NCI-H23 lung, in the assay with HCC-2998 colon and in the assay with HOP-92 NSCLC was more than 100 µM each time.

With `CNS(=O)(=O)Nc1nccc(Cc2c(C)c3ccc(Oc4ncccn4)cc3oc2=O)c1F`, the GI50 is 0.0176 µM and 0.00703 µM in the assay on COLO 205 colon; 0.0449 µM and 0.00891 µM in the assay with HL-60(TB) leukemia; more than 86 µM in the assay on SF-268 CNS; 0.0223 µM and 0.0145 µM in the assay with OVCAR-5 ovarian; 39 µM and > 10 µM in the assay on DU-145 prostate; 0.549 µM and 0.313 µM in the assay on MDA-MB-231 breast. Further, the GI50 with HCT-15 colon was more than 25.7 µM; in the assay on NCI-H23 lung, 0.061 µM and 0.148 µM; with HCC-2998 colon, 0.0209 µM and 0.00869 µM; in the assay with HOP-92 NSCLC, < 0.0152 µM and 0.0613 µM. The TGI in the assay on COLO 205 colon, in the assay on HL-60(TB) leukemia, in the assay with SF-268 CNS, in the assay with OVCAR-5 ovarian, in the assay with DU-145 prostate and in the assay on MDA-MB-231 breast was more than 100 µM each time. The total growth inhibition concentration (TGI) was more than 100 µM in the assay on HCT-15 colon; more than 100 µM in the assay with NCI-H23 lung; more than 10 µM with HCC-2998 colon; 0.406 µM and 1.93 µM in the assay with HOP-92 NSCLC.

Take `C=C(C)c1nc(Oc2ccccc2)nc(Oc2ccccc2)n1`: the total growth inhibition concentration (TGI) in the assay with COLO 205 colon was 17.2 µM; with HL-60(TB) leukemia it was 4.51 µM; with SF-268 CNS, 16.2 µM; in the assay on OVCAR-5 ovarian it was 30.2 µM; with DU-145 prostate it was 30.4 µM; in the assay with MDA-MB-231 breast it was 28.9 µM. In addition, the total growth inhibition concentration (TGI) is 7.43 µM with HCT-15 colon, 21.5 µM in the assay with NCI-H23 lung, 8.18 µM with HCC-2998 colon and 10.8 µM in the assay with HOP-92 NSCLC.
